Test results as given in ChEMBL document CHEMBL1909046, “DrugMatrix in vitro pharmacology data”.
pIC50, pKi: −log10 of the molar value.

Legend:
[1] = biological target: T1, Alpha-2A adrenergic receptor (Homo sapiens, UniProt P08913); type: cell membranes, Sf9, Membrane; note: in other assays of this panel Not Active means under 50% inhibition at 10 µM
T1 sequence (P08913 whole entry): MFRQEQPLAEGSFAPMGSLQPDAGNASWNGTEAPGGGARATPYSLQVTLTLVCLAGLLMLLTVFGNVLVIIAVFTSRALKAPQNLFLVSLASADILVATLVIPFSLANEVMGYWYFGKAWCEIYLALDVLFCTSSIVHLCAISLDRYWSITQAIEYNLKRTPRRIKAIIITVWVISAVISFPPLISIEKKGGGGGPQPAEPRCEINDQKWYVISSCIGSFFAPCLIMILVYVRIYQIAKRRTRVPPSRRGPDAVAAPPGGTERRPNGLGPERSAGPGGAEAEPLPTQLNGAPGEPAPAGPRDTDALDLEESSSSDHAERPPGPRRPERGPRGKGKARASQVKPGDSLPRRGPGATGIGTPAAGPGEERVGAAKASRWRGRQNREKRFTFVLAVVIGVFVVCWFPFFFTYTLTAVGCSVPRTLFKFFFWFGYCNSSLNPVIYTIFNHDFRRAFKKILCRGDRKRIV

[2] = biological target: T2, Alpha-2C adrenergic receptor (Homo sapiens, UniProt P18825); assay: DRUGMATRIX: Adrenergic Alpha-2C radioligand binding (ligand: [3H] MK-912); type: cell membranes, Sf9, Membrane
T2 sequence (P18825 whole entry): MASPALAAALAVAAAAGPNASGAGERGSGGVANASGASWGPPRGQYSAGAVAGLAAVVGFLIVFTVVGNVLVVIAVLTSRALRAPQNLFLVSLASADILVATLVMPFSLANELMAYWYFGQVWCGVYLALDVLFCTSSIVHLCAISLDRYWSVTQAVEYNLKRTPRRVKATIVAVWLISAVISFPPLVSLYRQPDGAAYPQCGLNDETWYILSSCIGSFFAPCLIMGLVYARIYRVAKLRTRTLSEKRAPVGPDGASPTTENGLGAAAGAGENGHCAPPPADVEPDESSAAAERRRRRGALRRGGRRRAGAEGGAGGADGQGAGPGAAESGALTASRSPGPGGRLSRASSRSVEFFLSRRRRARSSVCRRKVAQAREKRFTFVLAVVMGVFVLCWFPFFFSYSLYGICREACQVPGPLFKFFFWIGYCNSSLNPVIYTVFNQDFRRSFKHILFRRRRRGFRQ

[3] = biological target: Tyrosine-protein kinase Fyn (Homo sapiens, UniProt P06241); assay: biochemical; type: cell-based, Insect cells;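 note: enzymatic inhibition of Fyn kinase activity measured with Poly(Glu:Tyr) as the phosphorylation substrate; in other assays of this panel Not Active means under 50% inhibition at 10 µM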
[4] = DRUGMATRIX: Purinergic P2X radioligand binding (ligand: [3H] alpha, beta-Methylene-ATP); type: cell membranes, Oryctolagus cuniculus, New Zealand albino, Urinary bladder, Membrane; details: Not Active = under 50% inhibition at 10 µM
Estrogen receptor beta = Estrogen receptor beta (Homo sapiens, UniProt Q92731); details: sf9; note: in other assays of this panel Not Active means under 50% inhibition at 10 µM
Chain of Estrogen receptor beta (Q92731 whole entry): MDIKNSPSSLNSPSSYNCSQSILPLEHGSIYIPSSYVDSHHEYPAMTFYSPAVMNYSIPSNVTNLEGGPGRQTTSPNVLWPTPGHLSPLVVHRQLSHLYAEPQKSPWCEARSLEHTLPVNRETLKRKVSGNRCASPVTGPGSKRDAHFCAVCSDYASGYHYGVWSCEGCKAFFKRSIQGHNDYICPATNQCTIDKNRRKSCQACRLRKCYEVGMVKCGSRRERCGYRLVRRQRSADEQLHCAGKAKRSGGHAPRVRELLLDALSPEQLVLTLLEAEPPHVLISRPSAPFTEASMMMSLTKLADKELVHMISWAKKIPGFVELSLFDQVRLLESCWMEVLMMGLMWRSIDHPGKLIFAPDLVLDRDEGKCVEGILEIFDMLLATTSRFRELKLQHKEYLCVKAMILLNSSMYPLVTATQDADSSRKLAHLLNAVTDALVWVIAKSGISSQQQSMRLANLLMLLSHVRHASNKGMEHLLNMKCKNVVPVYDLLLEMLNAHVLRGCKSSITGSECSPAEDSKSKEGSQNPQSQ

Chain of Tyrosine-protein kinase Fyn (P06241 whole entry): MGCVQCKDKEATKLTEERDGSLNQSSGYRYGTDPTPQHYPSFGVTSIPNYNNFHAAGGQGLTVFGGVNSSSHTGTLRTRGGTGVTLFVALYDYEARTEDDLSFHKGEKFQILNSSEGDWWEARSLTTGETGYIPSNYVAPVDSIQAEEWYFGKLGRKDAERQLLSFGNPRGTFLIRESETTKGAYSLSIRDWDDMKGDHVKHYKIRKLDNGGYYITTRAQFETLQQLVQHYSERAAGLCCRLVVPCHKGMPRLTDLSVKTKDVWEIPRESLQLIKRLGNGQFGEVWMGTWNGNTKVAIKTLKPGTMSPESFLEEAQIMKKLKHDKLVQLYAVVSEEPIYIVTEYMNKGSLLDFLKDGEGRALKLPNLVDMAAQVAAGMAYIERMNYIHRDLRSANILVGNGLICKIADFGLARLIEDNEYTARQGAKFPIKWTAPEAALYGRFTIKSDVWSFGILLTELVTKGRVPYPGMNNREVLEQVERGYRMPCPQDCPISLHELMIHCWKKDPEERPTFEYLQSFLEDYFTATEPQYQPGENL

| Compound | pIC50 ([1]; read-out: IC50) | pKi ([1]; read-out: Ki) | IC50 ([2]; sf9) | IC50 ([3]; insect cells) | IC50 [4] | Ki [4] | IC50 (Estrogen receptor beta) | IC50 ([1]; sf9) | pIC50 ([2]; read-out: IC50) | pKi ([2]; read-out: Ki) | pIC50 ([3]; read-out: IC50) | Ki ([1]; sf9) | Ki ([2]; sf9) | Ki ([3]; insect cells) | Ki (Estrogen receptor beta) |
| --- | --- | --- | --- | --- | --- | --- | --- | --- | --- | --- | --- | --- | --- | --- | --- |
| C#CCN(C)[C@H](C)Cc1ccccc1 [SELEGILINE] | 5.75 | 6.17 | Not Active | Not Active | Not Active | Not Active | Not Active |  |  |  |  |  |  |  |  |
| CO[C@H]1C[C@@H]2CC[C@@H](C)[C@@](O)(O2)C(=O)C(=O)N2CCCC[C@H]2C(=O)O[C@H]([C@H](C)C[C@@H]2CC[C@@H](O)[C@H](OC)C2)CC(=O)[C@H](C)/C=C(\C)[C@@H](O)[C@@H](OC)C(=O)[C@H](C)C[C@H](C)/C=C/C=C/C=C/1C [SIROLIMUS] |  |  | Not Active | Not Active | Not Active | Not Active | Not Active | Not Active |  |  |  |  |  |  |  |
| CN[C@@H]1[C@H](O)[C@H](NC)[C@H]2O[C@@]3(O)C(=O)C[C@@H](C)O[C@H]3O[C@@H]2[C@H]1O [SPECTINOMYCIN] |  |  | Not Active | Not Active | Not Active | Not Active |  | Not Active |  |  |  |  |  |  |  |
| Nc1ccc(S(=O)(=O)Nc2ncccn2)cc1 [SULFADIAZINE] |  |  | Not Active | Not Active | Not Active | Not Active | Not Active | Not Active |  |  |  |  |  |  |  |
| COc1ncnc(NS(=O)(=O)c2ccc(N)cc2)c1OC [SULFADOXINE] |  |  | Not Active | Not Active | Not Active | Not Active | Not Active | Not Active |  |  |  |  |  |  |  |
| Nc1ccc(S(=O)(=O)Nc2nccs2)cc1 [SULFATHIAZOLE] |  |  | Not Active | Not Active | Not Active | Not Active |  | Not Active |  |  |  |  |  |  |  |
| C[C@]12CC[C@H]3[C@@H](CCC4=CC(=O)CC[C@@]43C)[C@@H]1CC[C@@H]2O [TESTOSTERONE] |  |  | Not Active | Not Active | Not Active | Not Active | Not Active | Not Active |  |  |  |  |  |  |  |
| CC(C)(C)NC[C@H](O)COc1nsnc1N1CCOCC1 [TIMOLOL] |  |  | Not Active | Not Active | Not Active | Not Active |  | Not Active |  |  |  |  |  |  |  |
| CCS(=O)(=O)CCn1c([N+](=O)[O-])cnc1C [TINIDAZOLE] |  |  | Not Active | Not Active | Not Active | Not Active |  | Not Active |  |  |  |  |  |  |  |
| C[C@@H]1C[C@H]2[C@@H]3CCC4=CC(=O)C=C[C@]4(C)C3=CC[C@]2(C)[C@H]1C(=O)CN1CCN(c2cc(N3CCCC3)nc(N3CCCC3)n2)CC1 [TIRILAZAD] |  |  |  |  | Not Active | Not Active | Not Active | Not Active | 5.10 | 5.94 | 5.95 |  |  |  |  |
| NC[C@H]1O[C@H](O[C@H]2[C@H](O)[C@@H](O[C@H]3O[C@H](CO)[C@@H](O)[C@H](N)[C@H]3O)[C@H](N)C[C@@H]2N)[C@H](N)C[C@@H]1O [TOBRAMYCIN] |  |  | Not Active | Not Active | Not Active | Not Active | Not Active | Not Active |  |  |  |  |  |  |  |
| O=c1n(CCCN2CCN(c3cccc(Cl)c3)CC2)nc2ccccn12 [TRAZODONE] |  |  |  | Not Active |  |  |  |  |  |  |  |  |  |  |  |
| O=C(O)C(Cl)(Cl)Cl [TRICHLOROACETIC ACID] |  |  | Not Active | Not Active | Not Active | Not Active |  | Not Active |  |  |  |  |  |  |  |
| COc1ccc(CN2CCNCC2)c(OC)c1OC [TRIMETAZIDINE] |  |  | Not Active | Not Active | Not Active | Not Active | Not Active | Not Active |  |  |  |  |  |  |  |
| CC(=O)O[C@H]1C[C@@H]2CC[C@@H]3[C@H](CC[C@@]4(C)[C@H]3C[C@H]([N+]3(C)CCCCC3)[C@@H]4OC(C)=O)[C@@]2(C)C[C@@H]1N1CCCCC1.[Br-] [VECURONIUM BROMIDE] |  |  | Not Active | Not Active | Not Active | Not Active |  | Not Active |  |  |  |  |  |  |  |
| COc1cc(C(=O)NS(=O)(=O)c2ccccc2C)ccc1Cc1cn(C)c2ccc(NC(=O)OC3CCCC3)cc12 [ZAFIRLUKAST] |  |  | Not Active | Not Active | Not Active | Not Active | Not Active | Not Active |  |  |  |  |  |  |  |
| Cc1cn([C@H]2C[C@H](N=[N+]=[N-])[C@@H](CO)O2)c(=O)[nH]c1=O [ZIDOVUDINE] |  |  | Not Active | Not Active | Not Active | Not Active |  | Not Active |  |  |  |  |  |  |  |
| STANNOUS FLUORIDE |  |  | Not Active | Not Active | Not Active | Not Active | Not Active | Not Active |  |  |  | Not Active | Not Active | Not Active | Not Active |
